ChEMBL document CHEMBL1147922, “Tetrahydroindazole inhibitors of bacterial type II topoisomerases. Part 2: SAR development and potency against multidrug-resistant strains” (Bioorg Med Chem Lett, 2007)
In brackets after ≈: the same amount, converted by molar mass.

Tests used:
Staphylococcus aureus [1] = assay: Antibacterial activity against ciprofloxacin resistant methicillin resistant Staphylococcus aureus OC4159; assay type: functional
Staphylococcus aureus [2] = assay: Antibacterial activity against quinolone susceptible methicillin resistant Staphylococcus aureus OC2878; assay type: functional
Escherichia coli = assay: Antibacterial activity against Escherichia coli KL16; assay type: functional
Staphylococcus aureus [3] = assay: Antibacterial activity against ciprofloxacin resistant methicillin resistant Staphylococcus aureus OC4222; assay type: functional
Staphylococcus aureus [4] = assay: Antibacterial activity against ciprofloxacin resistant methicillin resistant Staphylococcus aureus OC5273; assay type: functional
Staphylococcus aureus [5] = assay: Antibacterial activity against Staphylococcus aureus ATCC 13709; assay type: functional
Staphylococcus aureus [6] = assay: Antibacterial activity against ciprofloxacin resistant methicillin resistant Staphylococcus aureus OC3946; assay type: functional
[7] = Inhibition of bacterial DNA gyrase
Streptococcus pneumoniae = assay: Antibacterial activity against Streptococcus pneumoniae ATCC 49619; assay type: functional
[8] = Inhibition of bacterial DNA topoisomerase 4

SMILES | MIC (Staphylococcus aureus [1]) [µg/mL] | MIC (Staphylococcus aureus [2]) [µg/mL] | MIC (Escherichia coli) [µg/mL] | MIC (Staphylococcus aureus [3]) [µg/mL] | MIC (Staphylococcus aureus [4]) [µg/mL] | MIC (Staphylococcus aureus [5]) [µg/mL] | MIC (Staphylococcus aureus [6]) [µg/mL] | IC50 [7] [µg/mL] | MIC (Streptococcus pneumoniae) [µg/mL] | IC50 [8] [µg/mL]
COc1ccc2nccc(-n3cc4c(n3)CCC(NC(=O)c3cc5c(cc3F)SCC(=O)N5)C4)c2c1 (stereo not given) | 0.031 (≈ 0.0616 µM) | 0.062 (≈ 0.123 µM) | 4 (≈ 7.94 µM) | 0.031 (≈ 0.0616 µM) | 0.062 (≈ 0.123 µM) | 0.03 (≈ 0.0596 µM) | 0.015 (≈ 0.0298 µM) | 8 (≈ 15.9 µM) | 1 (≈ 1.99 µM) | 0.25 (≈ 0.496 µM)
O=C1CSc2ccc(C(=O)NC3CCc4nn(-c5cccc6cccnc56)cc4C3)cc2N1 (stereo not given) | 4 (≈ 8.78 µM) | 0.25 (≈ 0.549 µM) | 16 (≈ 35.1 µM) | 4 (≈ 8.78 µM) | 0.5 (≈ 1.1 µM) | 0.25 (≈ 0.549 µM) | 0.125 (≈ 0.274 µM) | 2 (≈ 4.39 µM) | 4 (≈ 8.78 µM) | 0.125 (≈ 0.274 µM)
COc1ccc2nccc(-n3cc4c(n3)CCC(NCc3ccc5c(c3)NC(=O)CS5)C4)c2n1 (stereo not given) | 0.25 (≈ 0.529 µM) | 0.5 (≈ 1.06 µM) | 1 (≈ 2.12 µM) | 0.125 (≈ 0.265 µM) | 0.5 (≈ 1.06 µM) | 0.25 (≈ 0.529 µM) | 0.125 (≈ 0.265 µM) | 0.125 (≈ 0.265 µM) | 1 (≈ 2.12 µM) | 0.03 (≈ 0.0635 µM)
COc1ccc2nccc(-n3cc4c(n3)CCC(NC(=O)c3ccc5c(c3)NC(=O)CS5)C4)c2n1 (stereo not given) | 0.5 (≈ 1.03 µM) | 0.031 (≈ 0.0637 µM) | > 128 | 0.5 (≈ 1.03 µM) | 0.062 (≈ 0.127 µM) | 0.06 (≈ 0.123 µM) | 0.007 (≈ 0.0144 µM) | 0.25 (≈ 0.514 µM) | 4 (≈ 8.22 µM) | 0.25 (≈ 0.514 µM)
